From patent publication US20130157954A1, “METHODS FOR TREATMENT OR PROPHYLAXIS OF KIDNEY OR LIVER DYSFUNCTION” (NPS PHARMACEUTICALS, INC., priority 2010, published 2013)

Assay: Example 1: kidney biomarkers (urea nitrogen, creatinine, GFR) in short bowel syndrome patients, every four weeks for 24 weeks; also sorted by >5% change from baseline
Type: in vivo, Human
Settings: 0.05 mg/kg/day
Protocol: Human patients with short bowel syndrome were divided into three groups: a control group (16 total individuals) to receive placebo, an experimental group (35 total individuals) to receive teduglutide at 0.05 mg/kg/day throughout the study, and an experimental group (32 total individuals) to receive teduglutide at 0.1 mg/kg/day throughout the study. Patients were treated by subcutaneous injection of placebo or the appropriate dose of teduglutide. As individuals with short bowel syndrome are likely to experience associated liver and kidney disease, known biomarkers of liver and kidney function were monitored every four weeks, for 24 weeks. The liver biomarkers tested included total bilirubin, ALT and AST and ALP. The kidney biomarkers tested included urea nitrogen, creatinine and GFR. Before administration of placebo or teduglutide, diagnostic biomarker levels were tested to establish a baseline for each individual.
To visualize the effect of GLP-2 on the levels of the diagnostic biomarkers, the average change from baseline was calculated for the placebo and teduglutide treated groups for each visit after a baseline was established. The average change from baseline of each group is depicted in FIGS. 1-7. The numerical figures for each diagnostic biomarker at each time point are depicted in Table 1.
The raw data for this sorting is reproduced in Table 2 below.

SMILES: CC[C@H](C)[C@H](NC(=O)[C@H](Cc1ccccc1)NC(=O)[C@H](CC(=O)O)NC(=O)[C@H](CCCNC(=N)N)NC(=O)[C@H](C)NC(=O)[C@H](C)NC(=O)[C@H](CC(C)C)NC(=O)[C@H](CC(N)=O)NC(=O)[C@H](CC(=O)O)NC(=O)[C@H](CC(C)C)NC(=O)[C@@H](NC(=O)[C@@H](NC(=O)[C@H](CC(N)=O)NC(=O)[C@H](CCSC)NC(=O)[C@H](CCC(=O)O)NC(=O)[C@H](CC(=O)O)NC(=O)[C@H](CO)NC(=O)[C@H](Cc1ccccc1)NC(=O)[C@H](CO)NC(=O)CNC(=O)[C@H](CC(=O)O)NC(=O)CNC(=O)[C@@H](N)Cc1c[nH]cn1)[C@@H](C)O)[C@@H](C)CC)C(=O)N[C@@H](CC(N)=O)C(=O)N[C@@H](Cc1c[nH]c2ccccc12)C(=O)N[C@@H](CC(C)C)C(=O)N[C@H](C(=O)N[C@@H](CCC(N)=O)C(=O)N[C@H](C(=O)N[C@@H](CCCCN)C(=O)N[C@H](C(=O)N[C@H](C(=O)N[C@@H](CC(=O)O)C(=O)O)[C@@H](C)O)[C@@H](C)CC)[C@@H](C)O)[C@@H](C)CC [teduglutide]
- CREATININE (RATE BLANKED) change from baseline >5%, number of patients (week 12): 16
- CREATININE (RATE BLANKED) change from baseline >5%, percent of patients (week 12): (45.7%)
- CREATININE (RATE BLANKED) change from baseline −5% <= and <=5%, number of patients (week 12): 4
- CREATININE (RATE BLANKED) change from baseline −5% <= and <=5%, percent of patients (week 12): (11.4%)
- GFR change from baseline <−5%, number of patients (week 12): 15
- GFR change from baseline <−5%, percent of patients (week 12): (42.9%)
- GFR change from baseline >5%, number of patients (week 12): 6
- GFR change from baseline >5%, percent of patients (week 12): (17.1%)
- GFR change from baseline −5% <= and <=5%, number of patients (week 12): 5
- GFR change from baseline −5% <= and <=5%, percent of patients (week 12): (14.3%)
- UREA NITROGEN change from baseline <−5%, number of patients (week 12): 17
- UREA NITROGEN change from baseline <−5%, percent of patients (week 12): (48.6%)
- UREA NITROGEN change from baseline >5%, number of patients (week 12): 6
- UREA NITROGEN change from baseline >5%, percent of patients (week 12): (17.1%)
- UREA NITROGEN change from baseline −5% <= and <=5%, number of patients (week 12): 4
- UREA NITROGEN change from baseline −5% <= and <=5%, percent of patients (week 12): (11.4%)
- CREATININE (RATE BLANKED) change from baseline <−5%, number of patients (week 16): 8
- CREATININE (RATE BLANKED) change from baseline <−5%, percent of patients (week 16): (22.9%)
- CREATININE (RATE BLANKED) change from baseline >5%, number of patients (week 16): 8
- CREATININE (RATE BLANKED) change from baseline >5%, percent of patients (week 16): (22.9%)
- CREATININE (RATE BLANKED) change from baseline −5% <= and <=5%, number of patients (week 16): 12
- CREATININE (RATE BLANKED) change from baseline −5% <= and <=5%, percent of patients (week 16): (34.3%)
- GFR change from baseline <−5%, number of patients (week 16): 7
- GFR change from baseline <−5%, percent of patients (week 16): (20.0%)
- GFR change from baseline >5%, number of patients (week 16): 11
- GFR change from baseline >5%, percent of patients (week 16): (31.4%)
- GFR change from baseline −5% <= and <=5%, number of patients (week 16): 10
- GFR change from baseline −5% <= and <=5%, percent of patients (week 16): (28.6%)
- UREA NITROGEN change from baseline <−5%, number of patients (week 16): 12
- UREA NITROGEN change from baseline <−5%, percent of patients (week 16): (34.3%)
- UREA NITROGEN change from baseline >5%, number of patients (week 16): 10
- UREA NITROGEN change from baseline >5%, percent of patients (week 16): (28.6%)
- UREA NITROGEN change from baseline −5% <= and <=5%, number of patients (week 16): 6
- UREA NITROGEN change from baseline −5% <= and <=5%, percent of patients (week 16): (17.1%)
- CREATININE (RATE BLANKED) change from baseline <−5%, number of patients (week 20): 9
- CREATININE (RATE BLANKED) change from baseline <−5%, percent of patients (week 20): (25.7%)
- CREATININE (RATE BLANKED) change from baseline >5%, number of patients (week 20): 10
- CREATININE (RATE BLANKED) change from baseline >5%, percent of patients (week 20): (28.6%)
- CREATININE (RATE BLANKED) change from baseline −5% <= and <=5%, number of patients (week 20): 8
- CREATININE (RATE BLANKED) change from baseline −5% <= and <=5%, percent of patients (week 20): (22.9%)
- GFR change from baseline <−5%, number of patients (week 20): 10
- GFR change from baseline <−5%, percent of patients (week 20): (28.6%)
- GFR change from baseline >5%, number of patients (week 20): 10
- GFR change from baseline >5%, percent of patients (week 20): (28.6%)
- GFR change from baseline −5% <= and <=5%, number of patients (week 20): 7
- GFR change from baseline −5% <= and <=5%, percent of patients (week 20): (20.0%)
- UREA NITROGEN change from baseline <−5%, number of patients (week 20): 13
- UREA NITROGEN change from baseline <−5%, percent of patients (week 20): (37.1%)
- UREA NITROGEN change from baseline >5%, number of patients (week 20): 7
- UREA NITROGEN change from baseline >5%, percent of patients (week 20): (20.0%)
- UREA NITROGEN change from baseline −5% <= and <=5%, number of patients (week 20): 7
- UREA NITROGEN change from baseline −5% <= and <=5%, percent of patients (week 20): (20.0%)
- CREATININE (RATE BLANKED) change from baseline <−5%, number of patients (week 24): 8
- CREATININE (RATE BLANKED) change from baseline <−5%, percent of patients (week 24): (22.9%)
- CREATININE (RATE BLANKED) change from baseline >5%, number of patients (week 24): 9
- CREATININE (RATE BLANKED) change from baseline >5%, percent of patients (week 24): (25.7%)
- CREATININE (RATE BLANKED) change from baseline −5% <= and <=5%, number of patients (week 24): 9
- CREATININE (RATE BLANKED) change from baseline −5% <= and <=5%, percent of patients (week 24): (25.7%)
- GFR change from baseline <−5%, number of patients (week 24): 8
- GFR change from baseline <−5%, percent of patients (week 24): (22.9%)
- GFR change from baseline >5%, number of patients (week 24): 10
- GFR change from baseline >5%, percent of patients (week 24): (28.6%)
- GFR change from baseline −5% <= and <=5%, number of patients (week 24): 8
- GFR change from baseline −5% <= and <=5%, percent of patients (week 24): (22.9%)
- UREA NITROGEN change from baseline <−5%, number of patients (week 24): 17
- UREA NITROGEN change from baseline <−5%, percent of patients (week 24): (48.6%)
- UREA NITROGEN change from baseline >5%, number of patients (week 24): 7
- UREA NITROGEN change from baseline >5%, percent of patients (week 24): (20.0%)
- UREA NITROGEN change from baseline −5% <= and <=5%, number of patients (week 24): 2
- UREA NITROGEN change from baseline −5% <= and <=5%, percent of patients (week 24): (5.7%)
